In publication PMC7529893, “Structural basis for substrate recognition and chemical inhibition of oncogenic MAGE ubiquitin ligases” (Nature Communications, 2020):

Molecular target: T1, MAGE-A11:PCF11 interaction (GST-MAGE-A11 and FAM-PCF11_4) (Homo sapiens, UniProt P43364)
T1 construct: GST-MAGE-A11 MHD (human MAGE-A11 MHD amino acid 218-429); made in house; host or cells: E. coli BL21(DE3)
T1 sequence (P43364 218-429): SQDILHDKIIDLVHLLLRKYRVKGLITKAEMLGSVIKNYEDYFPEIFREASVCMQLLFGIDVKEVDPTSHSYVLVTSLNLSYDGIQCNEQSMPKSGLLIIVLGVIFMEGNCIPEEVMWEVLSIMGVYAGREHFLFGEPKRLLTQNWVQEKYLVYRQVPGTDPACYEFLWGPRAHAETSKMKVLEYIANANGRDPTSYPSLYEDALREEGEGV
Experiment: TR-FRET primary / single point screen at 15 µM
Assay type: binding
Conditions: single point TR-FRET screening of 797 quinoline compounds against MAGE-A11:PCF11
How it was run: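 Single-point screen at 15 µM final compound in 50 mM Tris pH 7.5, 20 mM MgCl2, 0.1 mg/ml BSA, 1 mM DTT, with 200 nM FAM-PCF11_4, 5 nM Tb-anti-GST and 5 nM GST-MAGE-A11. After 90 min at room temperature, the 520/490 nm TR-FRET ratio (340 nm excitation) gave %Inhibition against no-MAGE-A11 and DMSO controls.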

| Compound | percent inhibition (TR-FRET) |
| --- | --- |
| CCCN(CCCNc1c2ccc(Cl)cc2nc2ccc(OC)cc12)Cc1c[nH]c2ccccc12 [SJ000522978] | -166.235 |
| CCCN(CCCNc1c2ccc(Cl)cc2nc2ccc(OC)cc12)Cc1cccc2c1OCO2 [SJ000522979] | -107.991 |
| CCCN(CCCNc1c2ccc(Cl)cc2nc2ccc(OC)cc12)Cc1cnn(C)c1 [SJ000522980] | -276.65 |
| CCCN(CCCNc1c2ccc(Cl)cc2nc2ccc(OC)cc12)CCOCc1ccccc1 [SJ000522981] | -212.396 |
| CCCN(CCCNc1c2ccc(Cl)cc2nc2ccc(OC)cc12)CCC(C)(C)C [SJ000522983] | -233.73 |
| CCCN(CCCNc1c2ccc(Cl)cc2nc2ccc(OC)cc12)Cc1cccn1C [SJ000522987] | -302.626 |
| CCCN(CCCNc1c2ccc(Cl)cc2nc2ccc(OC)cc12)Cc1nccs1 [SJ000522988] | -117.531 |
| CCCN(CCCNc1c2ccc(Cl)cc2nc2ccc(OC)cc12)Cc1ccc(C(=O)OC)cc1 [SJ000523018] | -118.624 |
| CCCN(CCCNc1c2ccc(Cl)cc2nc2ccc(OC)cc12)Cc1ccc(-c2ccccc2[N+](=O)[O-])o1 [SJ000523019] | -102.758 |
| CCCN(CCCNc1c2ccc(Cl)cc2nc2ccc(OC)cc12)Cc1ccc(-c2cccc(Cl)c2)o1 [SJ000523020] | -169.736 |
| CCCN(CCCNc1c2ccc(Cl)cc2nc2ccc(OC)cc12)Cc1ccc([N+](=O)[O-])o1 [SJ000523022] | -329.654 |
| COc1ccc2nc3cc(Cl)ccc3c(NCCCNCc3ccncc3)c2c1 [SJ000523023] | -127.586 |
| COc1ccc2nc3cc(Cl)ccc3c(NCCCNCc3ccccn3)c2c1 [SJ000523024] | -255.258 |
| COc1ccc2nc3cc(Cl)ccc3c(NCCCNCCCSC)c2c1 [SJ000523025] | -336.863 |
| COc1ccc2nc3cc(Cl)ccc3c(NCCCNCc3ccsc3)c2c1 [SJ000523026] | -353.834 |
| COc1ccc2nc3cc(Cl)ccc3c(NCCCNCCC(C)c3ccccc3)c2c1 (stereo not drawn) [SJ000523027] | -340.253 |
| COc1ccc2nc3cc(Cl)ccc3c(NCCCNCc3ccc(C)s3)c2c1 [SJ000523029] | -304.796 |
| COc1ccc2nc3cc(Cl)ccc3c(NCCCNCc3ccc(Br)o3)c2c1 [SJ000523030] | -219.419 |
| COc1ccc2nc3cc(Cl)ccc3c(NCCCNCc3ccco3)c2c1 [SJ000523032] | -165.325 |
| COc1ccc(CNCCCNc2c3ccc(Cl)cc3nc3ccc(OC)cc23)cc1 [SJ000523033] | -338.862 |
| COc1ccc2nc3cc(Cl)ccc3c(NCCCNCc3ccccc3F)c2c1 [SJ000523034] | -353.834 |
| COc1ccc2nc3cc(Cl)ccc3c(NCCCNCc3ccc(F)cc3)c2c1 [SJ000523035] | -398.22 |
| COc1ccc2nc3cc(Cl)ccc3c(NCCCNCc3cccc(C#N)c3)c2c1 [SJ000523037] | -333.152 |
| COc1ccc2nc3cc(Cl)ccc3c(NCCCNCc3ccc4ccccc4c3)c2c1 [SJ000523038] | -109.452 |

Same assay, conditions: single point TR-FRET screening of quinoline compounds against MAGE-A11:PCF11; 15 µM

| Compound | percent inhibition (TR-FRET) |
| --- | --- |
| CCCN(CCCNc1c2ccc(Cl)cc2nc2ccc(OC)cc12)Cc1cccnc1Br [SJ000522977] | 0.2567 |
| CCCN(CCCNc1c2ccc(Cl)cc2nc2ccc(OC)cc12)Cc1cc(F)cc(F)c1O [SJ000522982] | 2.045 |
| CCCN(CCCNc1c2ccc(Cl)cc2nc2ccc(OC)cc12)Cc1cc(OC(F)(F)F)ccc1OC [SJ000522984] | -36.7058 |
| CCCN(CCCNc1c2ccc(Cl)cc2nc2ccc(OC)cc12)Cc1cc(C(F)(F)F)ccc1OC [SJ000522985] | -46.0179 |
| CCCN(CCCNc1c2ccc(Cl)cc2nc2ccc(OC)cc12)Cc1cccc(C(F)(F)F)c1 [SJ000522986] | 16.1546 |
| CCCN(CCCNc1c2ccc(Cl)cc2nc2ccc(OC)cc12)Cc1cc(Br)cs1 [SJ000522989] | -56.7027 |
| CCCN(CCCNc1ccnc2cc(Cl)ccc12)Cc1c[nH]c(C)n1 [SJ000522990] | 4.828 |
| CCCN(CCCNc1ccnc2cc(Cl)ccc12)Cc1cc2ccccc2o1 [SJ000522991] | 9.295 |
| CCCN(CCCNc1ccnc2cc(Cl)ccc12)Cc1c[nH]c2ccc(F)cc12 [SJ000522992] | 29.3392 |
| CCCN(CCCNc1ccnc2cc(Cl)ccc12)Cc1cc2ccccc2s1 [SJ000522993] | 5.864 |
| CCCN(CCCNc1ccnc2cc(Cl)ccc12)Cc1ccc(OC)c(F)c1 [SJ000522994] | 15.1623 |
| CCCN(CCCNc1ccnc2cc(Cl)ccc12)Cc1cn(C)c2ccccc12 [SJ000522995] | -1.532 |
| CCCN(CCCNc1ccnc2cc(Cl)ccc12)Cc1cc(OC)ccc1F [SJ000522996] | 26.6585 |
| CCCN(CCCNc1ccnc2cc(Cl)ccc12)Cc1nc(C)cs1 [SJ000522997] | 3.413 |
| CCCN(CCCNc1ccnc2cc(Cl)ccc12)Cc1ccc(OC(F)(F)F)cc1 [SJ000522999] | 22.7376 |
| C#Cc1ccccc1CN(CCC)CCCNc1ccnc2cc(Cl)ccc12 [SJ000523000] | 12.4462 |
| CCCN(CCCNc1ccnc2cc(Cl)ccc12)Cc1ccc(CC)cc1 [SJ000523001] | 30.1342 |
| CCCN(CCCNc1ccnc2cc(Cl)ccc12)Cc1nccn1C [SJ000523002] | 6.351 |
| CCCN(CCCNc1ccnc2cc(Cl)ccc12)Cc1cncc(Br)c1 [SJ000523004] | 4.828 |
| CCCN(CCCNc1ccnc2cc(Cl)ccc12)Cc1scnc1C [SJ000523005] | 11.85 |
| CCCN(CCCNc1ccnc2cc(Cl)ccc12)Cc1cccnc1Br [SJ000523006] | 13.3074 |
| CCCN(CCCNc1ccnc2cc(Cl)ccc12)Cc1c[nH]c2ccccc12 [SJ000523007] | 26.2256 |
| CCCN(CCCNc1ccnc2cc(Cl)ccc12)Cc1ncc[nH]1 [SJ000523008] | 4.165 |
| CCCN(CCCNc1ccnc2cc(Cl)ccc12)Cc1cnn(C)c1 [SJ000523009] | 10.0613 |

| Compound | percent inhibition (TR-FRET) |
| --- | --- |
| CCCN(CCCNc1ccnc2cc(Cl)ccc12)Cc1[nH]cnc1C [SJ000523010] | 12.0487 |
| CCCN(CCCNc1ccnc2cc(Cl)ccc12)Cc1cc(OC(F)(F)F)ccc1OC [SJ000523011] | 15.666 |
| CCCN(CCCNc1ccnc2cc(Cl)ccc12)Cc1cc(C(F)(F)F)ccc1OC [SJ000523012] | 30.3991 |
| CCCN(CCCNc1ccnc2cc(Cl)ccc12)Cc1cccc(C(F)(F)F)c1 [SJ000523013] | 17.481 |
| CCCN(CCCNc1ccnc2cc(Cl)ccc12)Cc1cccn1C [SJ000523014] | 22.7145 |
| CCCN(CCCNc1ccnc2cc(Cl)ccc12)CC1CCOC1 (stereo not drawn) [SJ000523016] | 9.6638 |
| CCCN(CCCCCC(=O)OC)CCCNc1ccnc2cc(Cl)ccc12 [SJ000523017] | 14.3011 |
| CCCN(CCCNc1c2ccc(Cl)cc2nc2ccc(OC)cc12)Cc1c(Cl)ccc(Cl)c1Cl [SJ000523021] | 40.005 |
| COc1ccc2nc3cc(Cl)ccc3c(NCCCNCc3ccc(N(C)C)c4ccccc34)c2c1 [SJ000523028] | -1.532 |
| COc1ccc2nc3cc(Cl)ccc3c(NCCCNCc3ccccc3N)c2c1 [SJ000523031] | -57.1504 |
| COc1ccc2nc3cc(Cl)ccc3c(NCCCNCc3ccc(Cl)c([N+](=O)[O-])c3)c2c1 [SJ000523036] | -95.379 |
| CCCN(CCCNc1ccnc2cc(Cl)ccc12)Cc1ccc(-c2ccccc2)cc1 [SJ000523039] | 30.2293 |
| CCCN(CCCNc1ccnc2cc(Cl)ccc12)Cc1ccc2ccccc2c1 [SJ000523040] | 32.8503 |
| CCCN(CCCNc1ccnc2cc(Cl)ccc12)Cc1cccc(C)c1 [SJ000523041] | 28.5489 |
| CCCN(CCCNc1ccnc2cc(Cl)ccc12)Cc1ccc(C(=O)OC)cc1 [SJ000523042] | 16.7163 |
| CCCN(CCCNc1ccnc2cc(Cl)ccc12)Cc1ccc(Cl)cc1Cl [SJ000523043] | 12.0952 |
| CCCN(CCCNc1ccnc2cc(Cl)ccc12)Cc1ccc(-c2ccccc2[N+](=O)[O-])o1 [SJ000523044] | 9.266 |
| CCCN(CCCNc1ccnc2cc(Cl)ccc12)Cc1ccc(-c2cccc(Cl)c2)o1 [SJ000523045] | 16.2262 |
| CCCN(CCCNc1ccnc2cc(Cl)ccc12)Cc1c(Cl)ccc(Cl)c1Cl [SJ000523046] | 17.7459 |
| CCCN(CCCNc1ccnc2cc(Cl)ccc12)Cc1ccc([N+](=O)[O-])o1 [SJ000523047] | 9.575 |
| CCCCCCN(CCC)CCCNc1ccnc2cc(Cl)ccc12 [SJ000523048] | 1.317 |
| Clc1ccc2c(NCCCNCc3ccncc3)ccnc2c1 [SJ000523049] | 6.077 |
| Clc1ccc2c(NCCCNCc3ccccn3)ccnc2c1 [SJ000523050] | 4.744 |
| CSCCCNCCCNc1ccnc2cc(Cl)ccc12 [SJ000523051] | 14.9659 |
